The results in this text go back to article PMC3057995, “Potent Anti-Tumor Effect Generated by a Novel Human Papillomavirus (HPV) Antagonist Peptide Reactivating the pRb/E2F Pathway” (PLoS ONE, 2011).

The subject of test [1] is CNE nasopharyngeal carcinoma cells. The test is described as follows: MTT cell viability assay, CNE. Type of test: cell-based. Particulars: HPV-negative, data not shown. From the text:
HPV16-positive SiHa and CaSki cervical carcinoma cells were supplied by China Center for Type Culture Collection (CCTCC). The following cell lines used in this project were from our laboratory: HPV18-positive HeLa cervical carcinoma cells, CNE nasopharyngeal carcinoma cells, HaCat human keratinocyte cells, COS7 (African green monkey SV40-transformed kidney fibroblast cell line), 293T (human kidney epithelial cells), and NIH/3T3 mouse embryonic fibroblast cells. All cells were maintained in a humidified atmosphere of 5% CO2, Dulbecco's modified Eagle's medium (DMEM, pH 7.2), supplemented with 10% fetal calf serum (FCS).
Cell viability was determined with an MTT assay. Briefly, the cells were seeded into 96-well plates at a density of 4–5×10^3 cells/well. The cells were allowed to recover for 24 h before the medium was replaced with DMEM supplemented with peptides at different concentrations. The solvent of the peptides was set as the control. The peptide-supplemented medium was replaced daily and the respective concentrations were maintained. The cells were subjected to an MTT cell proliferation assay at different time points. The plates were incubated at 37°C for 3 h with the addition of 20 µl/well MTT (5 mg/ml). Untransformed MTT in the solution was removed by aspiration. […] The optical density of the formazan solutions was measured by microplate reader at 540 nm.
A general note: Formazan colour is commonly taken as a measure of viable cells.

Test [2] has as its system SiHa cells. Briefly: qRT-PCR, SiHa. Particulars: 80 µM. Type of test: cell-based. Here is the method:
(§1) Total RNA was extracted from the cultured cells using TRIzol reagent (Invitrogen, Carlsbad, CA,USA) according to the manufacturer's instructions. qRT-PCR was used to confirm the expression levels of mRNAs. Reverse transcription and qPCR were performed according to the protocol of Reverse Transcriptase System™ and SYBR® premix Ex Taq™ (Perfect Real Time) (TaKaRa, Dalian, P.R. China) on the ABI 7300 Real Time PCR System (Applied Biosystems, Foster City, CA, USA) supplied with analytical software. β-actin mRNA levels were used for normalization. Each sample was determined in triplicate. The results represent means ± SE from three experiment runs.

The subject of a further test is CaSki cells. Briefly: qRT-PCR, CaSki. Type of test: cell-based. Particulars: 80 µM. Here is the method: as §1
In general terms: In qPCR the cycle at which signal appears reflects the starting amount.

Test [3] has as its system SiHa cells. Briefly: Western blot, SiHa. Conditions: 80 µM. Type of test: cell-based. The procedure: Western blotting was carried out as described previously, [50]. […] After another 48 h of treatment, the cells were lysed in lysis buffer (Beyotime Institute of Biotechnology, Jiangshu, China) containing PMSF (Sigma Chemical Co., St. Louis, MI, USA) for 30 min at 4°C. The lysate was then centrifuged for 20 min at 13,000 rpm and 4°C. The proteins were then separated through SDS-PAGE and transferred onto the PVDF membrane (Immobion®-P Transfer Membrane, Millipore Corp., Billerica, MA, USA). Membranes were blocked in a Tris-buffered saline with 0.1% Tween-20 (TBS-T) solution with 5% nonfat dry milk and incubated overnight with primary antibodies at 4°C. The immunoreactive signals were detected by HRP-conjugated secondary antibodies (KPL, Gaithersburg, MD, USA) followed by SuperSignal® West Pico Chemiluminescent Substrate (Thermo Scientific, Milford, MA, USA.). Anti-β-actin antibodies were used to control protein loading. For the in vivo studies, tumors were harvested, and the cell lysates were prepared and transferred to a clean Eppendorf tube and centrifuged for 30 min at 14,000 rpm. The supernate was probed by western blotting, as described above.
For orientation: Immunoblotting shows a protein as a band on a membrane.

A further test concerns HPV16E7/pRb interaction. The test is described as follows: His-pull down of pRb by His-HPV16E7. Type of test: binding. Conditions: 293T cell lysate (300 µg total proteins), 10 µl 8 mmol/L Pep-7, overnight 4°C. The procedure: For pull-down analysis, the purified His-HPV E7 protein (200 µg/ml×50 µl) was preincubated with 100 µl His-band Resin (Amersham Biosciences, Little Chalfont, UK) for 4 h at 4°C. The beads were then washed four times with lysis buffer and divided into two equal portions. […] The mixtures were incubated overnight at 4°C under continuous agitation. Beads were subsequently washed four times with a lysis buffer. Bound proteins were eluted by boiling in Laemmli sample buffer and analyzed by Western blot.

The subject of another test is SiHa tumor xenografts. Briefly: H/E staining and BrdU-incorporation of tumor tissues. Particulars: 400 µg/mouse group. Type of test: in vivo, mouse (Balb/C-nu/nu). The procedure:
(§2) Three or two mice bearing tumor of each group were prelabeled with intra-peritoneal injection of BrdU (100 mg/kg, Sigma-Aldrich, Inc., Aaint Louis, MO, USA) 15 hours before sacrificed. Tumor specimens were then prepared as formalin-fixed, paraffin-embedded sections for hematoxylin-eosin staining, BrdU and pRb immunohistochemical staining as previously described, [57]. In brief, immunostaining was performed on formalin-fixed, paraffin-embedded sections using the anti-pRb monoclonal and anti- BrdU monoclonal antibodies, respectively. Before the application of the primary antibodies, an antigen retrieval technique was performed. […] The antibodies were detected by means of the Strept Avidin-Biotin Complex (SABC) method (Wuhan Boster Biological Technology, Ltd., Wuhan, P.R. China.) according to the manufacturer's instructions. Stained slides were examined under a Nikon ECLIPSE TE2000-U microscope (Nikon Corporation, Tokyo, Japan) and images were collected and analyzed with Pixera Penguin 600CL DiRactor™ (Pixera Corporation, Los Gatos, CA, USA). BrdU or pRb-positive cells were counted in each section. The total cell number was determined by nuclear staining with hematoxylin. At least 1000 total cells for each case were counted.

For another test, the system named is pRb. The test is described as follows: Immunohistochemistry of tumor tissues, pRb. Particulars: 400 µg/mouse group vs control. Type of test: in vivo, mouse (Balb/C-nu/nu). Here is the method: as §2
The subject of another test is HPV16 E7. The test is described as follows: Immunohistochemistry of tumor tissues, HPV16 E7. Type of test: in vivo, mouse (Balb/C-nu/nu). Particulars: 400 µg/mouse group vs control.
For another test, the system named is HPV16 E7 protein. Particulars: peptides 0.08 µM to 800 µM vs HPV16E7 mAb; mean ± SE, three independent experiments.

Description for HPV16 E7 protein: HPV16E7 mAb alone, incubated with the coated E7 protein, gave the benchmark absorption value. Absorbance values and inhibitory ratio were collected and calculated as outlined in Materials and Methods.
The specificity and affinity of the positive clones and synthetic peptides were determined by competitive ELISA. 400 ng/well HPV16 E7 protein was coated overnight in microtiter wells at 4°C. The positive clones or peptides at different concentrations mixed with HPV16E7 mAb were incubated with the coated E7 protein in microtiter wells for 3 h. The mixture at the same concentration of the library phage and HPV16E7 mAb was set as negative control. […] HPV16E7 mAb alone at the same concentration, incubated with the coated E7 protein, gave benchmark absorption. The inhibitory ratio was calculated by the following formula: Inhibitory ratio = 100%−(A450 of mixture well/A450 of mAb alone well)×100%.

With “SACPKGLDWCGG (C&C bridged by disulfide bonds) (disulfide) [Pep-7]”, the “cell proliferation (MTT)” value in test [1] is listed as “negligible effect”. In the test with SiHa cells [2], the “cyclins A, D1 and E1 RNA expression” value was “significantly reduced”; the “pRb and HPV16E7 RNA levels” value is “not affected”. Also, in the test on CaSki cells, the “cyclins A, D1 and E1 RNA expression” value is recorded as “significantly reduced”; the “pRb and HPV16E7 RNA levels” value is given as “not affected”. Further, the “p107 and p130 protein levels” value in the test with SiHa cells [3] (SiHa and CaSki (Fig. 4D)) is reported as “did not exhibit an effect”. Further, in the test with SiHa cells [3] (SiHa, 48 h), the HPV16E7 protein level entry is “reduced”; the “cyclins A, D1 and E1 protein expression” value is on record as “significantly reduced”; the pRb protein level result is listed as “increased”. For the same sequence, the “pull-down of pRb by His-HPV16E7” value in the test on HPV16E7/pRb interaction is reported as “could not pull down pRb from 293T cell lysates with Pep-7 present”. Moreover, in the test with SiHa tumor xenografts, the “H/E staining and BrdU uptake of tumor tissue” value is recorded as “repressed tumor growth”. In addition, the “pRb protein level in tumor tissue” value with pRb is given as “increased”. Besides, the “HPV16E7 protein level in tumor tissue” value with HPV16 E7 was “decreased”. For the same sequence, the “binding to HPV16 E7” value in the test with HPV16 E7 protein is on record as “bound to HPV16 E7 with high affinity compared with the control peptide N-pep”.
